According to the supplement of paper PMC13380429:

Experiments:
Conditions in all cases: 72 h
[1] = system: Caco-2; assay: cell viability relative to DMSO; higher = less toxic
[2] = system: Vero E6; assay: as above
[3] = system: Calu-3; assay: as above
[4] = system: HepG2; assay: as above
[5] = system: U2OS; assay: as above
[6] = system: Caco-2; assay: relative viability EC50 (midpoint between 100% and the lowest measured viability); higher = less toxic
[7] = system: Vero E6; assay: as above
[8] = system: Calu-3; assay: as above
[9] = system: HepG2; assay: as above
[10] = system: U2OS; assay: as above
[11] = system: Caco-2; assay: drug sensitivity score (DSS) for viability; higher = more toxic; extreme values may be limits of the assay
[12] = system: Vero E6; assay: as above
[13] = system: Calu-3; assay: as above
[14] = system: HepG2; assay: as above
[15] = system: U2OS; assay: as above

Row | SMILES | cell viability ([1]; 1 nM) [%] | cell viability ([1]; 10 nM) [%] | cell viability ([1]; 100 nM) [%] | cell viability ([1]; 1000 nM) [%] | cell viability ([1]; 10000 nM) [%] | cell viability ([2]; 1 nM) [%] | cell viability ([2]; 10 nM) [%] | cell viability ([2]; 100 nM) [%] | cell viability ([2]; 1000 nM) [%] | cell viability ([2]; 10000 nM) [%] | cell viability ([3]; 1 nM) [%] | cell viability ([3]; 10 nM) [%] | cell viability ([3]; 100 nM) [%] | cell viability ([3]; 1000 nM) [%] | cell viability ([3]; 10000 nM) [%] | cell viability ([4]; 1 nM) [%] | cell viability ([4]; 10 nM) [%] | cell viability ([4]; 100 nM) [%] | cell viability ([4]; 1000 nM) [%] | cell viability ([4]; 10000 nM) [%] | cell viability ([5]; 1 nM) [%] | cell viability ([5]; 10 nM) [%] | cell viability ([5]; 100 nM) [%] | cell viability ([5]; 1000 nM) [%] | cell viability ([5]; 10000 nM) [%] | relative viability EC50 [6] [µM] | relative viability EC50 [7] [µM] | relative viability EC50 [8] [µM] | relative viability EC50 [9] [µM] | relative viability EC50 [10] [µM] | drug sensitivity score [11] | drug sensitivity score [12] | drug sensitivity score [13] | drug sensitivity score [14] | drug sensitivity score [15]
1 | CN(C)CCC=C1c2ccccc2C=Cc2ccccc21 [cyclobenzaprine] | 102 | 108 | 101 | 98.8 | 114 | 100 | 99.6 | 92.2 | 107 | 101 | 98.8 | 99.3 | 94.8 | 99 | 101 | 111 | 97.9 | 104 | 113 | 103 | 102 | 98.4 | 103 | 101 | 104 | > 10 | > 10 | > 10 | > 10 | > 10 | 0 | 0 | 0 | 0 | 0
2 | Nc1nc(=O)n([C@H]2C[C@H](O)[C@@H](CO)O2)cc1Cl [cytochlor] | 90 | 97.6 | 77.4 | 101 | 84.6 | 100 | 98.5 | 98.8 | 98.3 | 98.7 | 91.6 | 98.1 | 102 | 95.7 | 86.3 | 114 | 105 | 113 | 93.5 | 76.5 | 97.7 | 100 | 94.4 | 100 | 92.5 | > 10 | > 10 | > 10 | > 10 | > 10 | 0.5 | 0 | 0.4 | 1.7 | 0
3 | O=C(O)Cc1ccc(CCNS(=O)(=O)c2ccc(Cl)cc2)cc1 [daltroban] | 104 | 104 | 94.2 | 94.1 | 94.7 | 109 | 98.4 | 109 | 107 | 89.5 | 101 | 95.3 | 102 | 116 | 105 | 95 | 90.9 | 99.8 | 104 | 95.7 | 102 | 95.3 | 99.2 | 96.1 | 99.9 | > 10 | > 10 | > 10 | > 10 | > 10 | 0 | 0 | 0 | 0 | 0
4 | COc1c(-c2ccc3cc(NS(C)(=O)=O)ccc3c2)cc(-n2ccc(=O)[nH]c2=O)cc1C(C)(C)C [dasabuvir] | 96.2 | 94.5 | 87.8 | 98.9 | 96.3 | 91.5 | 98.3 | 92.8 | 97 | 106 | 94 | 106 | 93.7 | 97.9 | 104 | 90.4 | 102 | 90.4 | 102 | 109 | 98.5 | 96.9 | 102 | 96.5 | 96.3 | > 10 | > 10 | > 10 | > 10 | > 10 | 0 | 0 | 0 | 0 | 0
5 | C[N+](C)(C)CCCCCCCCCC[N+](C)(C)C [decamethonium] | 98.1 | 93.1 | 99.1 | 99.9 | 97.4 | 101 | 98 | 102 | 95.7 | 99.7 | 88.3 | 114 | 95.6 | 108 | 89.3 | 102 | 99.2 | 96.2 | 93.2 | 104 | 98.3 | 99.8 | 94 | 97.3 | 95.5 | > 10 | > 10 | > 10 | > 10 | > 10 | 0 | 0 | 0 | 0 | 0
